Several values for one entry are separate records, joined by “and”; a condition that tells them apart may be missing. Equal entries are not always repeated. Toxic doses and inconclusive results are not listed. How the source made its calls: active means survival T/C of 150% or more; inactive means T/C below 125% in these data.
Test system: CD2F1 mice, L1210 leukemia ip, survival T/C
Assay: NCI In Vivo Anticancer Drug Screen. Data for tumor model L1210 Leukemia (intraperitoneal) in CD2F1 (CDF1) mice
Conditions: higher = longer survival
Outline: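 In this screen, transplantable tumors were grown in mice given either the compound or its vehicle. Results were expressed as the treated measurement relative to the control measurement.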

[1] = endpoint: mean survival time, dose: 100.0 mg/kg/injection, schedule: Q01DX009 (ip), vehicle: Klucel (hydroxypropylcellulose) (HPC)
[2] = endpoint: mean survival time, dose: 200.0 mg/kg/injection, schedule: Q01DX009 (ip), vehicle: Klucel (hydroxypropylcellulose) (HPC)
[3] = endpoint: mean survival time, dose: 400.0 mg/kg/injection, schedule: Q01DX009 (ip), vehicle: Klucel (hydroxypropylcellulose) (HPC)

Measured: T/C

O=C(NO)c1ccc(O)c(O)c1
active: endpoint: mean survival time, dose: 196.0 mg/kg/injection, schedule: Q01DX009 (ip), vehicle: water 152 % of control | endpoint: mean survival time, dose: 200.0 mg/kg/injection, schedule: Q01DX009 (ip), vehicle: water 167 % of control | endpoint: mean survival time, dose: 245.0 mg/kg/injection, schedule: Q01DX009 (ip), vehicle: water 168 % of control | endpoint: mean survival time, dose: 307.0 mg/kg/injection, schedule: Q01DX009 (ip), vehicle: water 167 % of control | endpoint: mean survival time, dose: 307.2 mg/kg/injection, schedule: Q01DX009 (ip), vehicle: water 176 % of control | endpoint: mean survival time, dose: 336.14 mg/kg/injection, schedule: Q01DX009 (ip), vehicle: water 155 % of control | endpoint: mean survival time, dose: 383.0 mg/kg/injection, schedule: Q01DX009 (ip), vehicle: water 185 % of control | endpoint: mean survival time, dose: 384.0 mg/kg/injection, schedule: Q01DX009 (ip), vehicle: water 162 % of control | endpoint: mean survival time, dose: 400.0 mg/kg/injection, schedule: Q01DX009 (ip), vehicle: water 167 % of control | endpoint: mean survival time, dose: 480.0 mg/kg/injection, schedule: Q01DX009 (ip), vehicle: water 167 % of control and 206 % of control | endpoint: mean survival time, dose: 480.2 mg/kg/injection, schedule: Q01DX009 (ip), vehicle: water 187 % of control | endpoint: mean survival time, dose: 600.0 mg/kg/injection, schedule: Q01DX009 (ip), vehicle: water 154 % of control and 164 % of control | endpoint: median survival time, dose: 180.0 mg/kg/injection, schedule: Q03HX024 (ip), vehicle: water 214 % of control | endpoint: median survival time, dose: 225.0 mg/kg/injection, schedule: Q03HX024 (ip), vehicle: water 273 % of control | endpoint: median survival time, dose: 240.0 mg/kg/injection, schedule: Q01DX009 (ip), vehicle: water 154 % of control | endpoint: median survival time, dose: 268.0 mg/kg/injection, schedule: Q01DX009 (ip), vehicle: water 160 % of control | endpoint: median survival time, dose: 270.0 mg/kg/injection, schedule: Q03HX024 (ip), vehicle: water 238 % of control | endpoint: median survival time, dose: 400.0 mg/kg/injection, schedule: Q01DX009 (ip), vehicle: water 162 % of control and 163 % of control | endpoint: median survival time, dose: 480.0 mg/kg/injection, schedule: Q01DX009 (ip), vehicle: water 178 % of control | endpoint: median survival time, dose: 720.0 mg/kg/injection, schedule: Q01DX009 (ip), vehicle: water 170 % of control
inactive: endpoint: mean survival time, dose: 25.0 mg/kg/injection, schedule: Q01DX009 (ip), vehicle: water 115 % of control | endpoint: mean survival time, dose: 164.71 mg/kg/injection, schedule: Q01DX009 (ip), vehicle: water 121 % of control | endpoint: median survival time, dose: 18.75 mg/kg/injection, schedule: Q03HX024 (ip), vehicle: water 113 % of control | endpoint: median survival time, dose: 22.5 mg/kg/injection, schedule: Q03HX024 (ip), vehicle: water 109 % of control | endpoint: median survival time, dose: 37.5 mg/kg/injection, schedule: Q03HX024 (ip), vehicle: water 124 % of control | endpoint: median survival time, dose: 45.0 mg/kg/injection, schedule: Q03HX024 (ip), vehicle: water 119 % of control | endpoint: median survival time, dose: 50.0 mg/kg/injection, schedule: Q01DX009 (ip), vehicle: water 117 % of control | endpoint: median survival time, dose: 100.0 mg/kg/injection, schedule: Q01DX009 (ip), vehicle: water 124 % of control | endpoint: median survival time, dose: 120.0 mg/kg/injection, schedule: Q01DX009 (ip), vehicle: water 122 % of control | endpoint: median survival time, dose: 600.0 mg/kg/injection, schedule: Q01DX009 (ip), vehicle: water 95 % of control

COc1cccc(CCNc2ccncc2N)c1
inactive: endpoint: mean survival time, dose: 75.0 mg/kg/injection, schedule: Q01DX001 (ip), vehicle: saline 96 % of control

O=S(=O)(NN=C(c1ccccc1)c1ccccc1)c1ccccc1
inactive: endpoint: mean survival time, dose: 12.5 mg/kg/injection, schedule: Q01DX009 (ip), vehicle: Klucel (hydroxypropylcellulose) (HPC) 96 % of control | endpoint: mean survival time, dose: 25.0 mg/kg/injection, schedule: Q01DX009 (ip), vehicle: Klucel (hydroxypropylcellulose) (HPC) 100 % of control | endpoint: mean survival time, dose: 50.0 mg/kg/injection, schedule: Q01DX009 (ip), vehicle: Klucel (hydroxypropylcellulose) (HPC) 92 % of control | [1] 94 % of control | [2] 92 % of control | [3] 92 % of control

CCCCNCCC#N
inactive: endpoint: mean survival time, dose: 100.0 mg/kg/injection, schedule: Q04DX003 (ip), vehicle: saline with Tween-80 102 % of control | endpoint: mean survival time, dose: 200.0 mg/kg/injection, schedule: Q04DX003 (ip), vehicle: saline with Tween-80 95 % of control | endpoint: mean survival time, dose: 400.0 mg/kg/injection, schedule: Q04DX003 (ip), vehicle: saline with Tween-80 98 % of control

COC(=O)CCS(=O)(=O)CCC(=O)OC
inactive: endpoint: mean survival time, dose: 100.0 mg/kg/injection, schedule: Q04DX003 (ip), vehicle: Klucel (hydroxypropylcellulose) (HPC) 103 % of control | endpoint: mean survival time, dose: 200.0 mg/kg/injection, schedule: Q04DX003 (ip), vehicle: Klucel (hydroxypropylcellulose) (HPC) 100 % of control | endpoint: mean survival time, dose: 400.0 mg/kg/injection, schedule: Q04DX003 (ip), vehicle: Klucel (hydroxypropylcellulose) (HPC) 103 % of control

CCOC(=O)CCN1C(=O)NC(C)(c2ccccc2)C1=O (stereo not drawn)
inactive: [1] 100 % of control | [2] 98 % of control | [3] 114 % of control

CCOC1=Cc2c(oc3c(C(C)(C)C)cc(OCC)cc23)OC(C(C)(C)C)=C1
inactive: endpoint: median survival time, dose: 1.56 mg/kg/injection, schedule: Q01DX009 (ip), vehicle: saline with Tween-80 95 % of control and 102 % of control | endpoint: median survival time, dose: 3.12 mg/kg/injection, schedule: Q01DX009 (ip), vehicle: saline with Tween-80 95 % of control and 102 % of control | endpoint: median survival time, dose: 6.25 mg/kg/injection, schedule: Q01DX009 (ip), vehicle: saline with Tween-80 101 % of control and 102 % of control | endpoint: median survival time, dose: 12.5 mg/kg/injection, schedule: Q01DX009 (ip), vehicle: saline with Tween-80 98 % of control and 103 % of control | endpoint: median survival time, dose: 25.0 mg/kg/injection, schedule: Q01DX009 (ip), vehicle: saline with Tween-80 98 % of control and 102 % of control | endpoint: median survival time, dose: 50.0 mg/kg/injection, schedule: Q01DX009 (ip), vehicle: saline with Tween-80 114 % of control and 98 % of control

NCCCC(NN)C(=O)O (stereo not drawn)
inactive: endpoint: mean survival time, dose: 7.5 mg/kg/injection, schedule: Q01DX009 (ip), vehicle: saline 100 % of control | endpoint: mean survival time, dose: 15.0 mg/kg/injection, schedule: Q01DX009 (ip), vehicle: saline 97 % of control | endpoint: mean survival time, dose: 30.0 mg/kg/injection, schedule: Q01DX009 (ip), vehicle: saline 94 % of control

CCOC1OC(C(COC(C)=O)OC(C)=O)C(OC(C)=O)C(OC(C)=O)C1OC(C)=O (stereo not drawn)
inactive: endpoint: mean survival time, dose: 100.0 mg/kg/injection, schedule: Q01DX001 (ip), vehicle: saline with Tween-80 104 % of control | endpoint: mean survival time, dose: 200.0 mg/kg/injection, schedule: Q01DX001 (ip), vehicle: saline with Tween-80 96 % of control | endpoint: mean survival time, dose: 400.0 mg/kg/injection, schedule: Q01DX001 (ip), vehicle: saline with Tween-80 101 % of control

— PubChem BioAssay AID256 (DTP/NCI, 2004)
